From ChEMBL document CHEMBL4715863, “Chemistry and Biology of Natural Azoxy Compounds” (J Nat Prod, 2020) come the findings set out here.

Values after ≈ are worked out from the molar mass of the structure shown.

One assay concerns Escherichia coli. Briefly: Antibacterial activity against Escherichia coli BE1121 by paper disc-agar diffusion method. The format is functional. For orientation: A growth-free zone around the sample is the usual read-out of agar diffusion tests.
The next assay relates to KB. Put plainly: Cytotoxicity against human KB cells. Type of assay: functional, cell-based.

As a reminder, the MIC is the lowest concentration found to suppress growth. A word on the IC50: it is the concentration at which inhibition is half-maximal. A lower IC50 goes with greater potency.

`C=C(/N=[N+](\[O-])CC(C)C)C(=O)O`: the lowest concentration to inhibit growth against Escherichia coli (MIC) was 0.078 µg/mL (≈ 0.453 µM).
On to `[O-]/[N+](CCCCCCCCCC/C=C\CCc1cccnc1)=N\CCCCCCCCCC/C=C\CCc1cccnc1`, for which, in the assay on KB, the 50% inhibitory concentration (IC50) was determined as 1700 nM.
